In ChEMBL document CHEMBL1150921, “Organochlorine compounds from a terrestrial higher plant: structures and origin of chlorinated orcinol derivatives from diseased bulbs of Lilium maximowiczii” (1998):
Calls of active or inactive are those of the source. The calls are words filed in the database; no cut-off is given here.

Experiments:
Bipolaris leersiae [1] = experiment: Antifungal activity against Bipolaris leersiae assessed as inhibition of conidial germination at 300 ppm after 24 hrs by microscopy; assay type: functional
Bipolaris leersiae [2] = experiment: Antifungal activity against Bipolaris leersiae assessed as inhibition of conidial germination at 500 ppm after 24 hrs by microscopy; assay type: functional
Bipolaris leersiae [3] = experiment: Antifungal activity against Bipolaris leersiae assessed as inhibition of conidial germination at 100 ppm after 24 hrs by microscopy; assay type: functional
Bipolaris leersiae [4] = experiment: Antifungal activity against Bipolaris leersiae assessed as inhibition of conidial germination at 1000 ppm after 24 hrs by microscopy; assay type: functional, organism-based
Bipolaris leersiae [5] = experiment: Antifungal activity against Bipolaris leersiae assessed as inhibition of conidial germination at 50 ppm after 24 hrs by microscopy; assay type: functional, organism-based
Bipolaris leersiae [6] = experiment: Antifungal activity against Bipolaris leersiae assessed as inhibition of conidial germination at 10 ppm after 24 hrs by microscopy; assay type: functional

For `Cc1cc(O)c(Cl)c(O)c1`, the Activity (Bipolaris leersiae [1]) was “Active”, the Activity (Bipolaris leersiae [2]) was “Active” and the inhibition at 100 ppm (Bipolaris leersiae [3]) was 80%.
With `Cc1cc(O)cc(O)c1` [ORCINOL] the Activity (Bipolaris leersiae [4]) was “Active”, the inhibition at 300 ppm (Bipolaris leersiae [1]) was 30% and the inhibition at 500 ppm (Bipolaris leersiae [2]) was 80%. For the same compound, the inhibition at 100 ppm (Bipolaris leersiae [3]) was 30%.
For `Cc1cc(O)cc(O)c1Cl`, the Activity (Bipolaris leersiae [1]) was “Active”, the Activity (Bipolaris leersiae [2]) was “Active” and the inhibition at 100 ppm (Bipolaris leersiae [3]) was 80%.
In the case of `COc1cc(OC)c(Cl)c(C)c1Cl`, the Activity (Bipolaris leersiae [3]) is reported as “inactive”.
In the case of `COc1c(O)c(C)c(Cl)c(O)c1Cl`, the Activity (Bipolaris leersiae [1]) is reported as “Active”, the Activity (Bipolaris leersiae [2]) is reported as “Active” and the Activity (Bipolaris leersiae [5]) is reported as “Active”. The Activity (Bipolaris leersiae [3]) was “Active” and the inhibition at 10 ppm (Bipolaris leersiae [6]) was 80%.
In the case of `COc1c(Cl)c(C)c(Cl)c(O)c1Cl`, the Activity (Bipolaris leersiae [1]) is reported as “Active”, the Activity (Bipolaris leersiae [2]) is reported as “Active” and the Activity (Bipolaris leersiae [5]) is reported as “Active”. For the same compound, the Activity (Bipolaris leersiae [3]) was “Active” and the Activity (Bipolaris leersiae [6]) was “Active”.
With `COc1c(O)c(C)c(Cl)c(OC)c1Cl` the Activity (Bipolaris leersiae [1]) was “Active”, the Activity (Bipolaris leersiae [2]) was “Active” and the Activity (Bipolaris leersiae [5]) was “Active”. The Activity (Bipolaris leersiae [3]) was “Active”.
